Here are results for 22 molecules from patent publication US10745382B2 (BRISTOL-MYERS SQUIBB COMPANY, priority 2015, dated 2020).

This assay deals with T1, PD-1/PD-L1 (Homo sapiens, UniProt Q9NZQ7).
T1 construct: made in house; host or cells: HEK293T
Briefly: PD-1/PD-L1 Homogenous Time-Resolved Fluorescence (HTRF) binding assay. The settings on record: PD-L1-His 10 nM, PD-1-Ig 20 nM; value given as range class; read-out: Range or IC50. In short, it runs like this:
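Additional pairs run were PD-1-Ig with PD-L2-His (20 & 5 nM) and CD80-His with PD-L1-Ig (100 & 10 nM), all human proteins. Buffer: dPBS plus 0.1% BSA, 0.05% Tween-20; time-resolved FRET read-out via 1 nM Eu-cryptate anti-Ig and 20 nM APC anti-His, final concentrations.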
Background: Time-resolved FRET reads energy transfer from a long-lived donor to a nearby acceptor.

T1 sequence (Q9NZQ7 with tags, fused parts or gaps): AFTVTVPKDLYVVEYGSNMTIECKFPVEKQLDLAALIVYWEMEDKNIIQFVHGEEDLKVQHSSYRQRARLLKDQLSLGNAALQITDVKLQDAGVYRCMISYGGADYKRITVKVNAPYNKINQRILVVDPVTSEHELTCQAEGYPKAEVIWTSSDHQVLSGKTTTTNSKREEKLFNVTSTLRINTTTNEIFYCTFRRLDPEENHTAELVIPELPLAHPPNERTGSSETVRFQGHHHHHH

`Cc1c(COc2cc(OCc3cncc(C#N)c3)c(CN3CCCCC3CO)cc2Cl)cccc1-c1cccc(OCCCN2CC[C@@H](O)C2)c1C` (stereo partly drawn) [Example 2334, 5-((4-chloro-2-((2-(hydroxymethyl)piperidin-1-yl)methyl)-5-((3′-(3-((R)-3-hydroxypyrrolidin-1-yl)propoxy)-2,2′-dimethyl-[1,1′-biphenyl]-3-yl)methoxy)phenoxy)methyl)nicotinonitrile]: the IC50 lay within 0.21 to 10 nM.

As for `Cc1c(COc2cc(OCc3cncc(C#N)c3)c(CNC(CO)CO)cc2Cl)cccc1-c1cccc(NC(=O)c2ncccc2CO)c1C` [Example 2340, N-(3′-((2-chloro-5-((5-cyanopyridin-3-yl)methoxy)-4-(((1,3-dihydroxypropan-2-yl)amino)methyl)phenoxy)methyl)-2,2′-dimethyl-[1,1′-biphenyl]-3-yl)-3-(hydroxymethyl)picolinamide], the IC50 was in the range of 10 to 100 nM.

Consider `Cc1c(COc2cc(OCc3cncc(C#N)c3)c(CN[C@](C)(CO)C(=O)O)cc2Cl)cccc1-c1cccc(OCC2(CN3CC[C@@H](O)C3)CC2)c1C` [Example 2341, (R)-2-((5-chloro-2-((5-cyanopyridin-3-yl)methoxy)-4-((3′-((1-(((R)-3-hydroxypyrrolidin-1-yl)methyl)cyclopropyl)methoxy)-2,2′-dimethyl-[1,1′-biphenyl]-3-yl)methoxy)benzyl)amino)-3-hydroxy-2-methylpropanoic Acid], for which the IC50 was 0.21 to 10 nM.

As to `Cc1c(COc2cc(OCc3cncc(C#N)c3)c(CNC(CO)CO)cc2Cl)cccc1-c1cccc(OCC2(CN3CC[C@@H](O)C3)CC2)c1C` [Example 2342, (R)-5-((4-chloro-2-(((1,3-dihydroxypropan-2-yl)amino)methyl)-5-((3′-((1-((3-hydroxypyrrolidin-1-yl)methyl)cyclopropyl)methoxy)-2,2′-dimethyl-[1,1′-biphenyl]-3-yl)methoxy)phenoxy)methyl)nicotinonitrile], the IC50 was 0.21 to 10 nM.

On to `Cc1c(COc2cc(OCc3cncc(C#N)c3)c(CN3CCCC[C@H]3C(=O)O)cc2Cl)cccc1-c1cccc(OCC2(CN3CC[C@@H](O)C3)CC2)c1C` [Example 2346, (S)-1-(5-chloro-2-((5-cyanopyridin-3-yl)methoxy)-4-((3′-((1-(((R)-3-hydroxypyrrolidin-1-yl)methyl)cyclopropyl)methoxy)-2,2′-dimethyl-[1,1′-biphenyl]-3-yl)methoxy)benzyl)piperidine-2-carboxylic Acid], for which the IC50 is 0.21 to 10 nM.

Consider `Cc1c(COc2cc(OCc3cncc(C#N)c3)c(CNC(CO)CO)cc2Cl)cccc1-c1cccc(NC(=O)CNC2CC2)c1C` [Example 2347, N-(3′-((2-chloro-5-((5-cyanopyridin-3-yl)methoxy)-4-(((1,3-dihydroxypropan-2-yl)amino)methyl)phenoxy)methyl)-2,2′-dimethyl-[1,1′-biphenyl]-3-yl)-2-(cyclopropylamino)acetamide], for which the IC50 lay in the range of 0.21 to 10 nM.

Take `Cc1c(COc2cc(OCc3cncc(C#N)c3)c(CN[C@@](C)(CO)C(=O)O)cc2Cl)cccc1-c1cccc(OCC2(CN3CC[C@@H](O)C3)CC2)c1C` [Example 2348, (S)-2-((5-chloro-2-((5-cyanopyridin-3-yl)methoxy)-4-((3′-((1-(((R)-3-hydroxypyrrolidin-1-yl)methyl)cyclopropyl)methoxy)-2,2′-dimethyl-[1,1′-biphenyl]-3-yl)methoxy)benzyl)amino)-3-hydroxy-2-methylpropanoic Acid]: the IC50 was 0.21 to 10 nM.

Regarding `Cc1cc(C(=O)N2CCOCC2)ccc1-c1cccc(COc2cc(OCc3cncc(C#N)c3)c(CNC(CO)CO)cc2Cl)c1C` [Example 2349, 5-((4-chloro-2-(((1,3-dihydroxypropan-2-yl)amino)methyl)-5-((2,2′-dimethyl-4′-(morpholine-4-carbonyl)-[1,1′-biphenyl]-3-yl)methoxy)phenoxy)methyl)nicotinonitrile], the IC50 was 10 to 100 nM.

`Cc1c(COc2cc(OCc3cncc(C#N)c3)c(CNC(CO)CO)cc2Cl)cccc1-c1cccc(Nc2cc(N3CCOCC3)ncn2)c1C` [Example 2350, 5-((4-chloro-2-(((1,3-dihydroxypropan-2-yl)amino)methyl)-5-((2,2′-dimethyl-3′-((6-morpholinopyrimidin-4-yl)amino)-[1,1′-biphenyl]-3-yl)methoxy)phenoxy)methyl)nicotinonitrile]: the IC50 fell in the range of 0.21 to 10 nM.

With `Cc1c(COc2cc(OCc3cncc(C#N)c3)c(CNC(CO)CO)cc2Cl)cccc1-c1cccc(Oc2cccc3c2CCNC3=O)c1C` [Example 2354, 5-((4-chloro-2-(((1,3-dihydroxypropan-2-yl)amino)methyl)-5-((2,2′-dimethyl-3′-((1-oxo-1,2,3,4-tetrahydroisoquinolin-5-yl)oxy)-[1,1′-biphenyl]-3-yl)methoxy)phenoxy)methyl)nicotinonitrile], the IC50 lay within 10 to 100 nM.

Turning to `Cc1c(COc2cc(OCc3cncc(C#N)c3)c(CN3CCCC[C@H]3C(=O)O)cc2Cl)cccc1-c1cccc(OCCCN2CCC(C(=O)O)CC2)c1C` [Example 2364, (S)-1-(4-((3′-(3-(4-carboxypiperidin-1-yl)propoxy)-2,2′-dimethyl-[1,1′-biphenyl]-3-yl)methoxy)-5-chloro-2-((5-cyanopyridin-3-yl)methoxy)benzyl)piperidine-2-carboxylic Acid], the IC50 is 0.21 to 10 nM.

Consider `Cc1c(COc2cc(OCc3cncc(C#N)c3)c(CN3CCCC[C@H]3C(=O)Oc3ccc([N+](=O)[O-])cc3)cc2Cl)cccc1-c1cccc(OCCCN2CC[C@@H](O)C2)c1C` [Example 2370, 4-nitrophenyl (S)-1-(5-chloro-2-((5-cyanopyridin-3-yl)methoxy)-4-((3′-(3-((R)-3-hydroxypyrrolidin-1-yl)propoxy)-2,2′-dimethyl-[1,1′-biphenyl]-3-yl)methoxy)benzyl)piperidine-2-carboxylate], for which the IC50 fell in the range of 10 to 100 nM.

Consider `Cc1c(COc2cc(OCc3cncc(C#N)c3)c(C(=O)NC(C)(CO)CO)cc2Cl)cccc1-c1cccc(OCCCN2CC[C@@H](O)C2)c1C` [Example 2378, (R)-5-chloro-2-((5-cyanopyridin-3-yl)methoxy)-N-(1,3-dihydroxy-2-methylpropan-2-yl)-4-((3′-(3-(3-hydroxypyrrolidin-1-yl)propoxy)-2,2′-dimethyl-[1,1′-biphenyl]-3-yl)methoxy)benzamide], for which the IC50 lay within 0.21 to 10 nM.

`Cc1c(COc2cc(OCc3cncc(C#N)c3)c(C(=O)NCCO)cc2Cl)cccc1-c1cccc(OCCCN2CC[C@@H](O)C2)c1C` [Example 2379, (R)-5-chloro-2-((5-cyanopyridin-3-yl)methoxy)-N-(2-hydroxyethyl)-4-((3′-(3-(3-hydroxypyrrolidin-1-yl)propoxy)-2,2′-dimethyl-[1,1′-biphenyl]-3-yl)methoxy)benzamide]: the IC50 is 0.21 to 10 nM.

Take `Cc1c(COc2cc(OCc3cncc(C#N)c3)c(C(=O)N3CCCC[C@H]3C(=O)O)cc2Cl)cccc1-c1cccc(OCCCN2CC[C@@H](O)C2)c1C` [Example 2380, (S)-1-(5-chloro-2-((5-cyanopyridin-3-yl)methoxy)-4-((3′-(3-((R)-3-hydroxypyrrolidin-1-yl)propoxy)-2,2′-dimethyl-[1,1′-biphenyl]-3-yl)methoxy)benzoyl)piperidine-2-carboxylic Acid]: the IC50 was in the range of 10 to 100 nM.

In the case of `Cc1c(COc2cc(OCc3cncc(C#N)c3)c(C=O)cc2Cl)cccc1-c1cccc(OCCCN2CCC(O)(C(=O)O)CC2)c1C` [Example 2385, 1-(3-((3′-((2-chloro-5-((5-cyanopyridin-3-yl)methoxy)-4-formylphenoxy)methyl)-2,2′-dimethyl-[1,1′-biphenyl]-3-yl)oxy)propyl)-4-hydroxypiperidine-4-carboxylic Acid], the IC50 was 0.21 to 10 nM.

With `Cc1c(OCCCN2CC[C@@H](O)C2)cccc1-c1cccc(COc2cc(OCc3cncc(C#N)c3)c(CN[C@](C)(CO)C(=O)O)cc2Cl)c1` [Example 3015], the IC50 was 0.21 to 10 nM.

In the case of `Cc1c(OCCCN2CC[C@@H](O)C2)cccc1-c1cccc(COc2cc(OCc3cncc(C#N)c3)c(CN[C@H](CO)C(=O)O)cc2Cl)c1` [Example 3016, (R)-2-((5-chloro-2-((5-cyanopyridin-3-yl)methoxy)-4-((3′-(3-((R)-3-hydroxypyrrolidin-1-yl)propoxy)-2′-methyl-[1,1′-biphenyl]-3-yl)methoxy)benzyl)amino)-3-hydroxypropanoic Acid], the IC50 lay within 0.21 to 10 nM.

For the molecule `Cc1c(OCCCN2CC[C@@H](O)C2)cccc1-c1cccc(COc2cc(OCc3cncc(C#N)c3)c(CN[C@](C)(CO)C(=O)O)cc2Cl)c1Cl` [Example 3017, (R)-2-((5-chloro-4-((2-chloro-3′-(3-((R)-3-hydroxypyrrolidin-1-yl)propoxy)-2′-methyl-[1,1′-biphenyl]-3-yl)methoxy)-2-((5-cyanopyridin-3-yl)methoxy)benzyl)amino)-3-hydroxy-2-methylpropanoic Acid], the IC50 was in the range of 0.21 to 10 nM.

Take `Cc1c(COc2cc(OCc3cncc(C#N)c3)c(CN[C@](C)(CO)C(=O)O)cc2Cl)cccc1-c1cccc(OCCCN2[C@@H]3CC[C@H]2C[C@@H](O)C3)c1` [Example 3019, (R)-2-((5-chloro-2-((5-cyanopyridin-3-yl)methoxy)-4-((3′-(3-((1R,3R,5S)-3-hydroxy-8-azabicyclo[3.2.1]octan-8-yl)propoxy)-2-methyl-[1,1′-biphenyl]-3-yl)methoxy)benzyl)amino)-3-hydroxy-2-methylpropanoic Acid]: the 50% inhibitory concentration (IC50) is 0.21 to 10 nM.

In the case of `Cc1ccccc1-c1cccc(COc2cc(OCc3cncc(C#N)c3)c(CN[C@@](C)(CO)C(=O)O)cc2Cl)c1C` [Example 3020, (S)-2-((5-chloro-2-((5-cyanopyridin-3-yl)methoxy)-4-((2,2′-dimethyl-[1,1′-biphenyl]-3-yl)methoxy)benzyl)amino)-3-hydroxy-2-methylpropanoic Acid], the IC50 lay within 0.21 to 10 nM.

As to `Cc1ccccc1-c1cccc(COc2cc(OCc3cncc(C#N)c3)c(CN[C@@H](CO)C(=O)O)cc2Cl)c1C` [Example 3021, (S)-2-((5-chloro-2-((5-cyanopyridin-3-yl)methoxy)-4-((2,2′-dimethyl-[1,1′-biphenyl]-3-yl)methoxy)benzyl)amino)-3-hydroxypropanoic Acid], the IC50 fell in the range of 0.21 to 10 nM.

A word on the IC50: it is the concentration at which inhibition is half-maximal.
